# Measured values published in ChEMBL document CHEMBL4831521, “Dual High-Resolution α-Glucosidase and PTP1B Inhibition Profiling Combined with HPLC-PDA-HRMS-SPE-NMR Analysis for the Identification of Potentially Antidiabetic Chromene Meroterpenoids from Rhododendron capitatum” (J Nat Prod, 2021).
# Key:
# [1] = test system: Saccharomyces cerevisiae; assay: Inhibition of Saccharomyces cerevisiae alpha-glucosidase at 100 uM using pNPG as substrate preincubated for 10 mins followed by substrate addition and measured for 35 mins by microplate photometric method; conditions: time 45.0 min
# [2] = Inhibition of Saccharomyces cerevisiae alpha-glucosidase using pNPG as substrate preincubated for 10 mins followed by substrate addition and measured for 35 mins by microplate photometric method
# [3] = target: T1, Tyrosine-protein phosphatase non-receptor type 1 (Homo sapiens, UniProt P18031); assay: Inhibition of human recombinant PTP1B (1 to 322 residues) expressed in Escherichia coli using pNPP as substrate preincubated with substrate for 10 mins followed by enzyme addition and measured for 10 mins by absorbance based analysis
# T1 sequence (P18031 whole entry): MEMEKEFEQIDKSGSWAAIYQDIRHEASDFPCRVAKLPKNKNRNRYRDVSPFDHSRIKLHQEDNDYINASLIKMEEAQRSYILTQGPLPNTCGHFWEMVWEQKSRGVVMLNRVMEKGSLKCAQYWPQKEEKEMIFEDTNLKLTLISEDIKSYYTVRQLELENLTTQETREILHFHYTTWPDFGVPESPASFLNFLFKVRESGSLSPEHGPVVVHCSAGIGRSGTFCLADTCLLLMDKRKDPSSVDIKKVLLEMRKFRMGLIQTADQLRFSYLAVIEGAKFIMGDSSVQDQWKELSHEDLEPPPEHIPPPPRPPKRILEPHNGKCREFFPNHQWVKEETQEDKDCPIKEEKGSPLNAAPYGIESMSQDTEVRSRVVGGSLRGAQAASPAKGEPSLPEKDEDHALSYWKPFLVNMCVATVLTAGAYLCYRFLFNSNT
SMILES,inhibition [1] [%],IC50 [2] [µM],IC50 [3] [µM]
Cc1c(O)c(C)c2c(c1O)C(=O)C[C@@H](c1ccc(O)cc1)O2,11.2,–,–
C[C@H]1O[C@H](O[C@H]2[C@H](O)[C@@H](O)[C@@H](O[C@H]3[C@H](O)[C@@H](O)C(O)O[C@@H]3CO)O[C@@H]2CO)[C@H](O)[C@@H](O)[C@@H]1N[C@H]1C=C(CO)[C@@H](O)[C@H](O)[C@H]1O (some centres undefined) [ACARBOSE],–,796,–
CO[C@@](C)(CCC=C(C)C)[C@H](O)CC[C@]1(C)C=Cc2c(cc(C)c(C(=O)O)c2O)O1 (relative stereo),23.8,–,53.6
CC(C)=CCC/C(C)=C/CC/C(C)=C/Cc1c(O)cc(C)c(C(=O)O)c1O [GRIFOLIC ACID],99.7,8,3.6
C=C(C)[C@H](O)CCC(=C)[C@H](O)CC[C@]1(C)C=Cc2c(cc(C)c(C(=O)O)c2O)O1,63.5,93.5,36.3
CC(C)=CCC/C(C)=C/CC[C@]1(C)C=Cc2c(cc(C)c(C(=O)O)c2O)O1,99.9,10.6,2.5
Cc1c(O)cc(O)c2c1O[C@H](c1ccc(O)cc1)CC2=O,14.4,–,–
CO[C@](C)(CCC=C(C)C)[C@H](O)CC[C@]1(C)C=Cc2c(cc(C)c(C(=O)O)c2O)O1 (mixture of isomers),15.6,–,–
C=C(CCC=C(C)C)[C@H](O)CC[C@]1(C)C=Cc2c(cc(C)c(C(=O)O)c2O)O1,99.8,18.6,6

# The next lines start with the values.
inhibition [1] [%],IC50 [2] [µM],IC50 [3] [µM],SMILES
-1.8,–,–,CC(C)=CCC[C@](C)(O)[C@H](O)CC[C@]1(C)C=Cc2c(cc(C)c(C(=O)O)c2O)O1 (mixture of isomers)
27.5,–,19.9,C=C(C)/C=C/C/C(C)=C/CC[C@]1(C)C=Cc2c(cc(C)c(C(=O)O)c2O)O1
–,–,68.1,C/C(=C\CC[C@]1(C)C=Cc2c(cc(C)c(C(=O)O)c2O)O1)C/C=C\C(C)(C)O
17.2,–,–,COC(C)(C)[C@H](O)CC/C(C)=C/CC[C@]1(C)C=Cc2c(cc(C)c(C(=O)O)c2O)O1
99.6,21.2,10.3,C=C(C)[C@H](O)CC/C(C)=C/CC[C@]1(C)C=Cc2c(cc(C)c(C(=O)O)c2O)O1
36.9,–,28.2,C=C(C/C=C/C(C)(C)O)[C@H](O)CC[C@]1(C)C=Cc2c(cc(C)c(C(=O)O)c2O)O1
-1.8,–,–,CC(C)=CCC[C@@](C)(O)[C@H](O)CC[C@]1(C)C=Cc2c(cc(C)c(C(=O)O)c2O)O1 (relative stereo)
